Measurements reported in ChEMBL document CHEMBL3885881, “DrugMatrix”.

Organism: Rattus norvegicus
Experiment: DrugMatrix - Regimen: Daily Repeat
Type: toxicity, organism-based, Sprague-Dawley
Parameters: regimen Daily Repeat, gender Male, age 6-8 weeks
Details: in vivo, po, route oral GAVAGE, vehicle 100 % WATER; for ABSOLUTE BASOPHIL / ABSOLUTE EOSINOPHIL / ABSOLUTE LYMPHOCYTE / ABSOLUTE MONOCYTE / ABSOLUTE SEGMENTED NEUTROPHIL / BASOPHIL / EOSINOPHIL / ERYTHROCYTE COUNT / HEMATOCRIT / HEMOGLOBIN / LEUKOCYTE COUNT / LYMPHOCYTE / MEAN CORPUSCULAR HEMOGLOBIN / MEAN CORPUSCULAR HEMOGLOBIN CONCENTRATION / MEAN CORPUSCULAR VOLUME / MONOCYTE / NEUTROPHIL / NUCLEATED RED BLOOD CELLS / PLATELET COUNT: tissue Blood; for ALANINE AMINOTRANSFERASE / ALBUMIN / ALKALINE PHOSPHATASE / ASPARTATE AMINOTRANSFERASE / BLOOD UREA NITROGEN / CARBON DIOXIDE / CHLORIDE / CHOLESTEROL / CREATINE PHOSPHOKINASE / CREATININE / GLUCOSE / LACTATE DEHYDROGENASE / LIPASE / PHOSPHORUS / POTASSIUM / SODIUM / TOTAL BILIRUBIN / TOTAL PROTEIN / URIC ACID: tissue Plasma
[1] = 0 mg/kg, 72 h, dose level Control, time 3 day
[2] = 0 mg/kg, 120 h, dose level Control, time 5 day
[3] = 10 mg/kg, 72 h, dose level Low, time 3 day

For `NNc1nncc2ccccc12` [HYDRALAZINE], the “ABSOLUTE BASOPHIL” value [1] was 0 CELLS/uL, the “ABSOLUTE EOSINOPHIL” value [1] was 20.17 CELLS/uL and the “ABSOLUTE LYMPHOCYTE” value [1] was 12371.67 CELLS/uL. For the same compound, the “ABSOLUTE MONOCYTE” value [1] was 166 CELLS/uL, the “ABSOLUTE SEGMENTED NEUTROPHIL” value [1] was 1292.17 CELLS/uL and the BASOPHIL [1] was 0%. For the same compound, the EOSINOPHIL [1] was 0.17%, the “ERYTHROCYTE COUNT” value [1] was 5.46 x10E6/uL and the HEMATOCRIT [1] was 34.38%. The HEMOGLOBIN [1] was 13.32 G/DL, the “LEUKOCYTE COUNT” value [1] was 13.85 x10E3/uL and the LYMPHOCYTE [1] was 88.5%. For the same compound, the “MEAN CORPUSCULAR HEMOGLOBIN” value [1] was 24.42 pg, the “MEAN CORPUSCULAR HEMOGLOBIN CONCENTRATION” value [1] was 38.7 G/DL and the “MEAN CORPUSCULAR VOLUME” value [1] was 63.07 fL. For the same compound, the MONOCYTE [1] was 1.17%, the NEUTROPHIL [1] was 10.17% and the “NUCLEATED RED BLOOD CELLS” value [1] was 0.17 /100WBC. The “PLATELET COUNT” value [1] was 1193.5 x10E3/uL, the “ALANINE AMINOTRANSFERASE” value [1] was 54.5 u/L and the ALBUMIN [1] was 4.02 G/DL. For the same compound, the “ALKALINE PHOSPHATASE” value [1] was 346.5 u/L, the “ASPARTATE AMINOTRANSFERASE” value [1] was 103.17 u/L and the “BLOOD UREA NITROGEN” value [1] was 16.5 mg/dL. The “CARBON DIOXIDE” value [1] was 29.83 mmol/L, the CHLORIDE [1] was 99.5 MEQ/L and the CHOLESTEROL [1] was 72.5 mg/dL. The “CREATINE PHOSPHOKINASE” value [1] was 532.5 u/L, the CREATININE [1] was 0.18 mg/dL and the GLUCOSE [1] was 168.5 mg/dL. The “LACTATE DEHYDROGENASE” value [1] was 536.5 u/L, the LIPASE [1] was 11.17 u/L and the PHOSPHORUS [1] was 11.48 mg/dL. The POTASSIUM [1] was 5.95 MEQ/L, the SODIUM [1] was 140.5 MEQ/L and the “TOTAL BILIRUBIN” value [1] was 0.18 mg/dL. The “TOTAL PROTEIN” value [1] was 5.77 G/DL, the “URIC ACID” value [1] was 1.42 mg/dL and the “ABSOLUTE BASOPHIL” value [2] was 0 CELLS/uL. The “ABSOLUTE EOSINOPHIL” value [2] was 22.83 CELLS/uL, the “ABSOLUTE LYMPHOCYTE” value [2] was 12202.83 CELLS/uL and the “ABSOLUTE MONOCYTE” value [2] was 158 CELLS/uL. For the same compound, the “ABSOLUTE SEGMENTED NEUTROPHIL” value [2] was 1283 CELLS/uL, the BASOPHIL [2] was 0% and the EOSINOPHIL [2] was 0.17%. The “ERYTHROCYTE COUNT” value [2] was 5.88 x10E6/uL, the HEMATOCRIT [2] was 36.62% and the HEMOGLOBIN [2] was 14.07 G/DL. The “LEUKOCYTE COUNT” value [2] was 13.67 x10E3/uL, the LYMPHOCYTE [2] was 89.5% and the “MEAN CORPUSCULAR HEMOGLOBIN” value [2] was 23.95 pg. For the same compound, the “MEAN CORPUSCULAR HEMOGLOBIN CONCENTRATION” value [2] was 38.43 G/DL, the “MEAN CORPUSCULAR VOLUME” value [2] was 62.28 fL and the MONOCYTE [2] was 1.17%. The NEUTROPHIL [2] was 9.17%, the “NUCLEATED RED BLOOD CELLS” value [2] was 0.17 /100WBC and the “PLATELET COUNT” value [2] was 1198 x10E3/uL. For the same compound, the “ALANINE AMINOTRANSFERASE” value [2] was 51 u/L, the ALBUMIN [2] was 4.3 G/DL and the “ALKALINE PHOSPHATASE” value [2] was 343 u/L. For the same compound, the “ASPARTATE AMINOTRANSFERASE” value [2] was 89.83 u/L, the “BLOOD UREA NITROGEN” value [2] was 17.67 mg/dL and the “CARBON DIOXIDE” value [2] was 27.17 mmol/L. The CHLORIDE [2] was 98.33 MEQ/L, the CHOLESTEROL [2] was 82.5 mg/dL and the “CREATINE PHOSPHOKINASE” value [2] was 533.33 u/L. For the same compound, the CREATININE [2] was 0.18 mg/dL, the GLUCOSE [2] was 152.67 mg/dL and the “LACTATE DEHYDROGENASE” value [2] was 220.33 u/L. It also gave an LIPASE [2] of 11.5 u/L, a PHOSPHORUS [2] of 11.25 mg/dL and a POTASSIUM [2] of 6.29 MEQ/L. For the same compound, the SODIUM [2] was 140.53 MEQ/L, the “TOTAL BILIRUBIN” value [2] was 0.22 mg/dL and the “TOTAL PROTEIN” value [2] was 6.12 G/DL. The “URIC ACID” value [2] was 1.42 mg/dL, the “ABSOLUTE BASOPHIL” value [3] was 0 CELLS/uL and the “ABSOLUTE EOSINOPHIL” value [3] was 33.33 CELLS/uL. For the same compound, the “ABSOLUTE LYMPHOCYTE” value [3] was 12179.67 CELLS/uL, the “ABSOLUTE MONOCYTE” value [3] was 152 CELLS/uL and the “ABSOLUTE SEGMENTED NEUTROPHIL” value [3] was 1268.33 CELLS/uL. The BASOPHIL [3] was 0%, the EOSINOPHIL [3] was 0.33% and the “ERYTHROCYTE COUNT” value [3] was 5.03 x10E6/uL. For the same compound, the HEMATOCRIT [3] was 31.97%, the HEMOGLOBIN [3] was 12.87 G/DL and the “LEUKOCYTE COUNT” value [3] was 13.63 x10E3/uL. The LYMPHOCYTE [3] was 89.67%, the “MEAN CORPUSCULAR HEMOGLOBIN” value [3] was 25.6 pg and the “MEAN CORPUSCULAR HEMOGLOBIN CONCENTRATION” value [3] was 40.27 G/DL. For the same compound, the “MEAN CORPUSCULAR VOLUME” value [3] was 63.57 fL, the MONOCYTE [3] was 1% and the NEUTROPHIL [3] was 9%. For the same compound, the “NUCLEATED RED BLOOD CELLS” value [3] was 0 /100WBC, the “PLATELET COUNT” value [3] was 1225.67 x10E3/uL and the “ALANINE AMINOTRANSFERASE” value [3] was 46.67 u/L. The ALBUMIN [3] was 3.87 G/DL, the “ALKALINE PHOSPHATASE” value [3] was 333.67 u/L and the “ASPARTATE AMINOTRANSFERASE” value [3] was 83.33 u/L. For the same compound, the “BLOOD UREA NITROGEN” value [3] was 16 mg/dL, the “CARBON DIOXIDE” value [3] was 30.33 mmol/L and the CHLORIDE [3] was 100.33 MEQ/L. The CHOLESTEROL [3] was 61.33 mg/dL, the “CREATINE PHOSPHOKINASE” value [3] was 318 u/L and the CREATININE [3] was 0.15 mg/dL. For the same compound, the GLUCOSE [3] was 154 mg/dL, the “LACTATE DEHYDROGENASE” value [3] was 304.33 u/L and the LIPASE [3] was 10.33 u/L. The PHOSPHORUS [3] was 11.37 mg/dL, the POTASSIUM [3] was 6.36 MEQ/L and the SODIUM [3] was 141.6 MEQ/L. For the same compound, the “TOTAL BILIRUBIN” value [3] was 0.2 mg/dL, the “TOTAL PROTEIN” value [3] was 5.7 G/DL and the “URIC ACID” value [3] was 1.67 mg/dL.
